Key:
Format in all cases: in vivo, rat
[1] = tested on: OVX female SD rats; test: Leptin level measurement; settings: after 28 days administration and 24-hour fasting, isoflavone aglycones 20 mg per kg body weight, 17 β-estradiol 1 μg per animal per day, mean ± SD
Source text: (§1) 1) Female SD rats (seven weeks) were procured, and were preliminarily kept for one week. The healthy female SD rats to be used as subjects (eight weeks) were raised in groups with uniform body weight. Rats other than those in the Sham group were ovarectomized (OVX). The Sham group was only laparotomized. After preliminarily keeping for one week after the OVX procedure, the rats were allowed free intake of high-fat feed having the composition shown in Table 2 for a period of 28 days starting on the day following preliminary keeping.
(§2) The rats were also allowed free intake of well water (3 ppm chlorine added). In addition, the environment of the animal facility had constant temperature and humidity of 23±2° C. and 55±10%. The atmosphere conditioning method involved ventilation (15 cycles/h), and the light time was from 8 am to 8 pm. The keeping apparatuses were stainless steel metabolic cages.
(§3) Upon completion of administration on day 28, 24-hour fasting was performed, and the rats were necropsied under ether anesthetization in order to collect blood from the abdominal aorta. Regarding serum cholesterol, measurement of total serum cholesterol, HDL cholesterol, LDL cholesterol and cholesterol ester ratio were carried out, and blood neutral fat (TG), blood free fatty acid (FFA) and leptin were measured using enzymatic methods. In addition, the uterus weight per 100 g body weight was measured for the necropsied females rats. Also, body fat determination was made by measuring the weight of removed posterior abdominal wall fat, mesenteric fat, perirenal fat and periovarian fat per 100 g of body weight. The thymus weights for the necropsied female rats were measured based on the weight per 100 g of body weight.
(§4) The results of measurement for each group were expressed as mean values±standard deviations for each of the measured parameters, and significant differences were determined using Student's t-test. Evaluation was made using the two-sided test, where significance levels were taken as 5 and 1%.

[2] = tested on: OVX female SD rats; test: Serum cholesterol measurement; settings: after 28 days administration and 24-hour fasting, isoflavone aglycones 20 mg per kg body weight, 17 β-estradiol 1 μg per animal per day, mean ± SD; for Cholesterol ester (%): cholesterol ester ratio
Source text: as §1, §2, §3
(§5) Evaluation was made using the two-sided test, where significance levels were taken as 5 and 1%.

[3] = tested on: OVX female SD rats; test: Thymus weight measurement; settings: for Change in Thymus Weight: at necropsy after 28 days, isoflavone aglycones 20 mg per kg body weight, 17 β-estradiol 1 μg per animal per day, mean ± SD
Source text: as §1, §2, §3, §4

[4] = tested on: OVX female SD rats; test: Blood neutral fat (TG) measurement; settings: after 28 days administration and 24-hour fasting, isoflavone aglycones 20 mg per kg body weight, 17 β-estradiol 1 μg per animal per day, mean ± SD
Source text: as §1, §2, §3, §4

[5] = tested on: OVX female SD rats; test: Urine NO2/NO3 measurement (24-hour accumulated urine); settings: 17 β-estradiol 1 μg per animal per day, mean ± SD
Source text: as §1, §2, §3, §4

[6] = tested on: OVX female SD rats; test: Blood free fatty acid (FFA) measurement; settings: after 28 days administration and 24-hour fasting, isoflavone aglycones 20 mg per kg body weight, 17 β-estradiol 1 μg per animal per day, mean ± SD
Source text: as §1, §2, §3, §4

[7] = tested on: OVX female SD rats; test: Body weight measurement in OVX rats on high-fat feed; settings: 17 β-estradiol 1 μg per animal per day, mean ± SD
Source text: as §1, §2
The body weights of all rats were measured once on days 0, 7, 14, 21 and 28.
as §5

[8] = tested on: OVX female SD rats; test: Body fat determination (weight of removed fat); settings: at necropsy after 28 days, isoflavone aglycones 20 mg per kg body weight, 17 β-estradiol 1 μg per animal per day, mean ± SD
Source text: as §1, §2, §3, §4

[9] = tested on: OVX female SD rats; test: Overall evaluation of biological activity promotion over all measured parameters; settings: at an administered amount of 1/4000 relative to isoflavone aglycones
Source text: as §1
Consequently, results were obtained that caused concern over side effects when administered at high dosages.

[10] = day 0, isoflavone aglycones 20 mg per kg body weight
[11] = day 7, isoflavone aglycones 20 mg per kg body weight
[12] = day 14, isoflavone aglycones 20 mg per kg body weight
[13] = day 21, isoflavone aglycones 20 mg per kg body weight
[14] = day 28, isoflavone aglycones 20 mg per kg body weight
[15] = day 0, isoflavone aglycones 20 mg per kg body weight in feed
[16] = day 7, isoflavone aglycones 20 mg per kg body weight in feed
[17] = day 14, isoflavone aglycones 20 mg per kg body weight in feed
[18] = day 21, isoflavone aglycones 20 mg per kg body weight in feed
[19] = day 28, isoflavone aglycones 20 mg per kg body weight in feed

| SMILES | Change in Leptin [1] [ng/mL] | Serum HDL cholesterol [2] [mg/dL] | Serum LDL cholesterol [2] [mg/dL] | Serum Total cholesterol [2] [mg/dL] | Cholesterol ester (%) [2] [%] | Change in Thymus Weight [3] | Change in TG (blood neutral fat) [4] [mg/dL] | Change in NO2/NO3 (urinary) [5, 10] [µmol] | Change in NO2/NO3 (urinary) [5, 11] [µmol] | Change in NO2/NO3 (urinary) [5, 12] [µmol] | Change in NO2/NO3 (urinary) [5, 13] [µmol] | Change in NO2/NO3 (urinary) [5, 14] [µmol] | Change in FFA (blood free fatty acid) [6] [mg/dL] | Change in Body Weight [7, 15] [g] | Change in Body Weight [7, 16] [g] | Change in Body Weight [7, 17] [g] | Body Fat: Mesenteric fat [8] | Body Fat: Periovarian fat [8] | Body Fat: Perirenal fat [8] | Body Fat: posterior abdominal wall fat [8] | also measured |
| --- | --- | --- | --- | --- | --- | --- | --- | --- | --- | --- | --- | --- | --- | --- | --- | --- | --- | --- | --- | --- | --- |
| O=c1c(-c2ccc(O)cc2)coc2cc(O)ccc12 [daidzein] | 1.7 ± 0.12 | 42.6 ± 2.25 | 36.3 ± 3.45 | 81.8 ± 2.57 | 70.1 ± 3.01 | 0.130 ± 0.02 g/100 g; body weight | 104.8 ± 16.71 | 6.0 ± 0.53 | 6.4 ± 0.54 | 6.4 ± 0.43 | 6.6 ± 0.40 | 6.0 ± 0.40 | 379.2 ± 24.45 | 191.0 ± 7.31 | 216.1 ± 6.86 | 230.6 ± 6.58 | 2.8 ± 0.18 g/100 g; body weight | 3.1 ± 0.17 g/100 g; body weight | 3.5 ± 0.20 g/100 g; body weight | 2.6 ± 0.23 g/100 g; body weight | thymus weight relative to the comparative group 1 (Sham) and the test group 1 (OVX), in words ([3]; 28 days): increase in weight; Change in Body Weight [7, 18]: 245.4 ± 7.07 g; Change in Body Weight [7, 19]: 257.4 ± 7.71 g |
| C[C@]12CC[C@@H]3c4ccc(O)cc4CC[C@H]3[C@@H]1CC[C@@H]2O [estradiol, 17 β-estradiol] | 0.7 ± 0.28 | 35.9 ± 3.38 | 38.2 ± 1.74 | 72.1 ± 3.86 | 70.7 ± 2.80 | 0.112 ± 0.01 g/100 g; body weight | 105.1 ± 5.37 | 6.1 ± 0.29 | 7.0 ± 0.60 | 7.8 ± 0.59 | 9.0 ± 0.76 | 9.4 ± 0.39 | 362.8 ± 24.41 | 192.5 ± 7.12 | – | – | 2.5 ± 0.19 g/100 g; body weight | 2.8 ± 0.27 g/100 g; body weight | 3.2 ± 0.22 g/100 g; body weight | 1.9 ± 0.10 g/100 g; body weight | stimulatory (agonistic) action with respect to biological activity, in words [9]: high |
| O=c1c(-c2ccc(O)cc2)coc2cc(O)cc(O)c12 [genistein] | 1.9 ± 0.25 | – | 40.6 ± 1.76 | 85.8 ± 2.53 | – | 0.110 ± 0.02 g/100 g; body weight | 116.9 ± 9.90 | 6.1 ± 0.34 | 6.4 ± 0.39 | 6.3 ± 0.56 | 6.2 ± 0.40 | 6.4 ± 0.4 | 400.0 ± 19.01 | 197.3 ± 10.18 | 216.9 ± 8.53 | 231.9 ± 9.77 | 2.6 ± 0.14 g/100 g; body weight | 3.0 ± 0.26 g/100 g; body weight | 3.7 ± 0.17 g/100 g; body weight | 2.8 ± 0.25 g/100 g; body weight | Change in Body Weight [7, 18]: 249.4 ± 9.81 g; Change in Body Weight [7, 19]: 266.8 ± 8.6 g |

From US20050123633A1, “Biological activity-promoting compositions containing soybean germ-origin isoflavone aglycon” (priority 2002, published 2005)
